Results taken from patent US20200354426A1 (MEDIMMUNE LIMITED, priority 2016, published 2020).
Like-named read-outs stand apart in the source and are kept apart here. Numbered stars: 1 amine (or outer) side, 2 acyl side, 3 side chain; on linkers, the order of the positions; unused ones are H or OH. Side chains are listed from the residue outwards. Peptide text beside a SMILES is read from it. * marks the point of attachment. γGlu = O=C(O)[C@H](CCC(=O)[*:2])N[*:1]; Palmitoyl = CCCCCCCCCCCCCCCC(=O)*; Ahx = NCCCCCC(=O)O

Experiments:
Test in all cases: cAMP activity assay in assay medium (assay 1)
Format in all cases: cell-based
Conditions in all cases: Table 4
Human GLP1R = Human GLP1R (Homo sapiens, UniProt P43220); parameters: expressed in transfected cells
Source text: (§1) Biological Activity of Peptides in Cell-Based cAMP Activity Assay (Assay 1):
(§2) All sample dilutions were made in duplicate.

Human GlucR = target: T1, Human GlucR (Homo sapiens, UniProt P47871)
T1 construct: expressed in transfected cells
Source text: as §1, §2

Human GIPr = target: T2, Human GIPr (Homo sapiens, UniProt P48546)
T2 construct: expressed in transfected cells
T2 sequence (P48546 22-466): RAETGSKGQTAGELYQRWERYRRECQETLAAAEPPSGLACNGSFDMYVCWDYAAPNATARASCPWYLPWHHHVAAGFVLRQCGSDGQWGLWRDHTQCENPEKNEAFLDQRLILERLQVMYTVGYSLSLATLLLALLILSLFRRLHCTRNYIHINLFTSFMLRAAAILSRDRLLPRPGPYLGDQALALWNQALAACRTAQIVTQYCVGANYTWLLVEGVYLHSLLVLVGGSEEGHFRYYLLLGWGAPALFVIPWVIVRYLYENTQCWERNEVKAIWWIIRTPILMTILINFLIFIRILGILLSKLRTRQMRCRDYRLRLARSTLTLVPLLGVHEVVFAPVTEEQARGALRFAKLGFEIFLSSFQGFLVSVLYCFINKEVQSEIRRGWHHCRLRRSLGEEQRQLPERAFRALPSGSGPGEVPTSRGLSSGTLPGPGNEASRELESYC
Source text: as §1, §2

[1] = assay medium, read-out: hGLP1R EC50
[2] = assay medium, read-out: hGlucR EC50
[3] = assay medium, read-out: hGIPR EC50

Sequence of Human GLP1R (P43220 24-463): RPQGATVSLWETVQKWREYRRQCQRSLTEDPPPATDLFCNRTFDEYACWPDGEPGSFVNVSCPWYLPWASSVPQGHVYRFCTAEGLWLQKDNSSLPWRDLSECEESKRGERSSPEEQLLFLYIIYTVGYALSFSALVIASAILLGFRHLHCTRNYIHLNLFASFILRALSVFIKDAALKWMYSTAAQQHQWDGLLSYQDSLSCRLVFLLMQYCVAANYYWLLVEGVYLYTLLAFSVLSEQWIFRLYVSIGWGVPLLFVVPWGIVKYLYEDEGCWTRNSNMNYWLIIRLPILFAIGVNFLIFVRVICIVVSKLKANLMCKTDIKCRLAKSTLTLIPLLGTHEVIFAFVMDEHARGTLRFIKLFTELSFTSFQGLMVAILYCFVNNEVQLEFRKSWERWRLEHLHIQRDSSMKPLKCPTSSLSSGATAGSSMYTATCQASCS
T1 sequence (P47871 26-477): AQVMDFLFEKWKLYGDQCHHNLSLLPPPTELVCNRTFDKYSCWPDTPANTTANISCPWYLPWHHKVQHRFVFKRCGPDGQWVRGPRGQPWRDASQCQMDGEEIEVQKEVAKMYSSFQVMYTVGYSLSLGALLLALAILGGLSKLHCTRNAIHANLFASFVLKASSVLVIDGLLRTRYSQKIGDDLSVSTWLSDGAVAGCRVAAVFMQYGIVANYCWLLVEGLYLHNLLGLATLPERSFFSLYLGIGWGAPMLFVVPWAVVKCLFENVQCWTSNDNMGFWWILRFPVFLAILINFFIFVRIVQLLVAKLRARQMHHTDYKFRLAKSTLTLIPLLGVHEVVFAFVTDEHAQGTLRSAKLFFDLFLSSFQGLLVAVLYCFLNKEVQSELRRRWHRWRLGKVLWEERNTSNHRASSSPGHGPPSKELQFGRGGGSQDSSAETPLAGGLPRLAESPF

| Compound | EC50 (Human GLP1R; [1]) | EC50 (Human GlucR; [2]) | EC50 (Human GIPr; [3]) | EC50 (Human GLP1R; hGLP1R EC50, assay medium) | EC50 (Human GlucR; hGlucR EC50, assay medium) | EC50 (Human GIPr; hGIPR EC50, assay medium) |
| --- | --- | --- | --- | --- | --- | --- |
| CCCCCCCCCCCCCCCC(=O)N[C@@H](CCC(=O)NCCCC[C@H](NC(=O)[C@H](CC(=O)O)NC(=O)[C@H](CO)NC(=O)[C@@H](NC(=O)[C@H](Cc1ccccc1)NC(=O)[C@@H](NC(=O)CNC(=O)[C@H](CCC(N)=O)NC(=O)[C@H](CO)NC(=O)[C@@H](N)Cc1c[nH]cn1)[C@@H](C)O)[C@@H](C)O)C(=O)N[C@@H](CO)C(=O)N[C@@H](CCCCN)C(=O)N[C@@H](Cc1ccc(O)cc1)C(=O)N[C@@H](CC(C)C)C(=O)N[C@@H](CC(=O)O)C(=O)N[C@@H](CO)C(=O)N[C@@H](CCCNC(=N)N)C(=O)N[C@@H](CCCNC(=N)N)C(=O)N[C@@H](C)C(=O)N[C@@H](CCC(N)=O)C(=O)N[C@@H](CC(=O)O)C(=O)N[C@@H](Cc1ccccc1)C(=O)N[C@H](C(=O)N[C@@H](CCC(N)=O)C(=O)N[C@@H](Cc1c[nH]c2ccccc12)C(=O)N[C@@H](CC(C)C)C(=O)N[C@H](C(=O)N[C@@H](C)C(=O)NCC(=O)NCC(N)=O)C(C)C)C(C)C)C(=O)O [g715] (H-HSQGTFTSDK([γGlu-Palmitoyl])SKYLDSRRAQDFVQWLVAGG-NH2; N-terminus assumed) | 0.0204 nM | 0.00253 nM | 0.998 nM | – | – | – |
| CCCCCCCCCCCCCCCC(=O)N[C@@H](CCC(=O)NCCCC[C@H](NC(=O)[C@H](CCC(=O)O)NC(=O)[C@H](CO)NC(=O)[C@H](Cc1ccc(O)cc1)NC(=O)[C@H](CC(=O)O)NC(=O)[C@H](CO)NC(=O)[C@@H](NC(=O)[C@H](Cc1ccccc1)NC(=O)[C@@H](NC(=O)CNC(=O)[C@H](CCC(N)=O)NC(=O)[C@H](CO)NC(=O)[C@@H](N)Cc1c[nH]cn1)[C@@H](C)O)[C@@H](C)O)C(=O)N[C@@H](CC(C)C)C(=O)N[C@@H](CC(=O)O)C(=O)N[C@@H](CO)C(=O)N[C@@H](CCC(=O)O)C(=O)N[C@@H](CCCNC(=N)N)C(=O)N[C@@H](C)C(=O)N[C@@H](CCCNC(=N)N)C(=O)N[C@@H](CC(=O)O)C(=O)N[C@@H](Cc1ccccc1)C(=O)N[C@H](C(=O)N[C@@H](C)C(=O)N[C@@H](Cc1c[nH]c2ccccc12)C(=O)N[C@@H](CC(C)C)C(=O)N[C@H](C(=O)N[C@@H](C)C(=O)NCC(=O)NCC(N)=O)C(C)C)C(C)C)C(=O)O [g802] (H-HSQGTFTSDYSEK([γGlu-Palmitoyl])LDSERARDFVAWLVAGG-NH2; N-terminus assumed) | 0.0964 nM | 1.81 nM | 91.2 nM | – | – | – |
| CCCCCCCCCCCCCCCC(=O)NCCCCCC(=O)NCCCC[C@H](NC(=O)[C@H](CO)NC(=O)[C@H](CC(=O)O)NC(=O)[C@H](CC(C)C)NC(=O)[C@H](Cc1ccc(O)cc1)NC(=O)[C@H](CCC(=O)O)NC(=O)[C@H](CO)NC(=O)[C@H](Cc1ccc(O)cc1)NC(=O)[C@H](CC(=O)O)NC(=O)[C@H](CO)NC(=O)[C@@H](NC(=O)[C@H](Cc1ccccc1)NC(=O)[C@@H](NC(=O)CNC(=O)[C@H](CCC(=O)O)NC(=O)CNC(=O)[C@@H](N)Cc1c[nH]cn1)[C@@H](C)O)[C@@H](C)O)C(=O)N[C@@H](CCCNC(=N)N)C(=O)N[C@@H](C)C(=O)N[C@@H](C)C(=O)N[C@@H](CC(=O)O)C(=O)N[C@@H](Cc1ccccc1)C(=O)N[C@H](C(=O)N[C@@H](C)C(=O)N[C@@H](Cc1c[nH]c2ccccc12)C(=O)N[C@@H](CC(C)C)C(=O)N[C@@H](CCC(=O)O)C(=O)N[C@@H](CCCNC(=N)N)C(=O)NCC(=O)NCC(N)=O)C(C)C [g725] (H-HGEGTFTSDYSEYLDSK([Ahx-Palmitoyl])RAADFVAWLERGG-NH2; N-terminus assumed) | 0.0252 nM | 59.9 nM | 1480 nM | – | – | – |
| CCCCCCCCCCCCCCCC(=O)N[C@@H](CCC(=O)NCCCC[C@H](NC(=O)[C@H](Cc1ccc(O)cc1)NC(=O)[C@H](CCCCN)NC(=O)[C@H](CO)NC(=O)[C@H](Cc1ccc(O)cc1)NC(=O)[C@H](CC(=O)O)NC(=O)[C@H](CO)NC(=O)[C@@H](NC(=O)[C@H](Cc1ccccc1)NC(=O)[C@@H](NC(=O)CNC(=O)[C@H](CCC(=O)O)NC(=O)CNC(=O)[C@@H](N)Cc1c[nH]cn1)[C@@H](C)O)[C@@H](C)O)C(=O)N[C@@H](CC(=O)O)C(=O)N[C@@H](CO)C(=O)N[C@@H](CCCNC(=N)N)C(=O)N[C@@H](CCCNC(=N)N)C(=O)N[C@@H](C)C(=O)N[C@@H](CCC(N)=O)C(=O)N[C@@H](CC(=O)O)C(=O)N[C@@H](Cc1ccccc1)C(=O)N[C@H](C(=O)N[C@@H](CCC(N)=O)C(=O)N[C@@H](Cc1c[nH]c2ccccc12)C(=O)N[C@@H](CC(C)C)C(=O)N[C@H](C(=O)N[C@@H](C)C(=O)NCC(=O)NCC(N)=O)C(C)C)C(C)C)C(=O)O [g733] (H-HGEGTFTSDYSKYK([γGlu-Palmitoyl])DSRRAQDFVQWLVAGG-NH2) | – | – | – | 0.0231 nM | 62 nM | 817 nM |
| CCCCCCCCCCCCCCCC(=O)N[C@@H](CCC(=O)NCCCC[C@H](NC(=O)[C@H](CO)NC(=O)[C@H](CC(=O)O)NC(=O)[C@H](CC(C)C)NC(=O)[C@H](Cc1ccc(O)cc1)NC(=O)[C@H](CCC(=O)O)NC(=O)[C@H](CO)NC(=O)[C@H](Cc1ccc(O)cc1)NC(=O)[C@H](CC(=O)O)NC(=O)[C@H](CO)NC(=O)[C@@H](NC(=O)[C@H](Cc1ccccc1)NC(=O)[C@@H](NC(=O)CNC(=O)[C@H](CCC(N)=O)NC(=O)[C@H](CO)NC(=O)[C@@H](N)Cc1c[nH]cn1)[C@@H](C)O)[C@@H](C)O)C(=O)N[C@@H](CCCNC(=N)N)C(=O)N[C@@H](C)C(=O)N[C@@H](CCCNC(=N)N)C(=O)N[C@@H](CC(=O)O)C(=O)N[C@@H](Cc1ccccc1)C(=O)N[C@H](C(=O)N[C@@H](C)C(=O)N[C@@H](Cc1c[nH]c2ccccc12)C(=O)N[C@@H](CC(C)C)C(=O)N[C@@H](CCC(=O)O)C(=O)N[C@@H](C)C(=O)NCC(=O)NCC(N)=O)C(C)C)C(=O)O [g837] (H-HSQGTFTSDYSEYLDSK([γGlu-Palmitoyl])RARDFVAWLEAGG-NH2; N-terminus assumed) | 0.467 nM | 0.213 nM | 114 nM | – | – | – |
| CCCCCCCCCCCCCCCC(=O)N[C@@H](CCC(=O)NCCCC[C@H](NC(=O)[C@H](CO)NC(=O)[C@H](CC(=O)O)NC(=O)[C@H](CC(C)C)NC(=O)[C@H](Cc1ccc(O)cc1)NC(=O)[C@H](CCCCN)NC(=O)[C@H](CO)NC(=O)[C@H](Cc1ccc(O)cc1)NC(=O)[C@H](CC(=O)O)NC(=O)[C@H](CO)NC(=O)[C@@H](NC(=O)[C@H](Cc1ccccc1)NC(=O)[C@@H](NC(=O)CNC(=O)[C@H](CCC(=O)O)NC(=O)CNC(=O)[C@@H](N)Cc1c[nH]cn1)[C@@H](C)O)[C@@H](C)O)C(=O)N[C@@H](CCCNC(=N)N)C(=O)N[C@@H](C)C(=O)N[C@@H](CCC(=O)O)C(=O)N[C@@H](CC(=O)O)C(=O)N[C@@H](Cc1ccccc1)C(=O)N[C@H](C(=O)N[C@@H](CCC(=O)O)C(=O)N[C@@H](Cc1c[nH]c2ccccc12)C(=O)N[C@@H](CC(C)C)C(=O)N[C@H](C(=O)N[C@@H](C)C(=O)NCC(=O)NCC(N)=O)C(C)C)C(C)C)C(=O)O [g681] (H-HGEGTFTSDYSKYLDSK([γGlu-Palmitoyl])RAEDFVEWLVAGG-NH2; N-terminus assumed) | 0.283 nM | 39.9 nM | 124 nM | – | – | – |
| CCCCCCCCCCCCCCCC(=O)NCCCCCC(=O)NCCCC[C@H](NC(=O)[C@H](CO)NC(=O)[C@H](CC(=O)O)NC(=O)[C@H](CC(C)C)NC(=O)[C@H](Cc1ccc(O)cc1)NC(=O)[C@H](CCC(=O)O)NC(=O)[C@H](CO)NC(=O)[C@H](Cc1ccc(O)cc1)NC(=O)[C@H](CC(=O)O)NC(=O)[C@H](CO)NC(=O)[C@@H](NC(=O)[C@H](Cc1ccccc1)NC(=O)[C@@H](NC(=O)CNC(=O)[C@H](CCC(N)=O)NC(=O)[C@H](CO)NC(=O)[C@@H](N)Cc1c[nH]cn1)[C@@H](C)O)[C@@H](C)O)C(=O)N[C@@H](CCCNC(=N)N)C(=O)N[C@@H](C)C(=O)N[C@@H](CCCNC(=N)N)C(=O)N[C@@H](CC(=O)O)C(=O)N[C@@H](Cc1ccccc1)C(=O)N[C@H](C(=O)N[C@@H](C)C(=O)N[C@@H](Cc1c[nH]c2ccccc12)C(=O)N[C@@H](CC(C)C)C(=O)N[C@@H](CCC(=O)O)C(=O)N[C@@H](C)C(=O)NCC(=O)NCC(N)=O)C(C)C [g838] (H-HSQGTFTSDYSEYLDSK([Ahx-Palmitoyl])RARDFVAWLEAGG-NH2; N-terminus assumed) | 0.0237 nM | 0.00568 nM | 84.3 nM | – | – | – |
| CCCCCCCCCCCCCCCC(=O)N[C@@H](CCC(=O)NCCCC[C@H](NC(=O)[C@H](CO)NC(=O)[C@H](CC(=O)O)NC(=O)[C@H](CC(C)C)NC(=O)[C@H](Cc1ccc(O)cc1)NC(=O)[C@H](CCCCN)NC(=O)[C@H](CO)NC(=O)[C@H](Cc1ccc(O)cc1)NC(=O)[C@H](CC(=O)O)NC(=O)[C@H](CO)NC(=O)[C@@H](NC(=O)[C@H](Cc1ccccc1)NC(=O)[C@@H](NC(=O)CNC(=O)[C@H](CCC(=O)O)NC(=O)[C@H](CO)NC(=O)[C@@H](N)Cc1c[nH]cn1)[C@@H](C)O)[C@@H](C)O)C(=O)N[C@@H](CCCNC(=N)N)C(=O)N[C@@H](C)C(=O)N[C@@H](CCC(=O)O)C(=O)N[C@@H](CC(=O)O)C(=O)N[C@@H](Cc1ccccc1)C(=O)N[C@H](C(=O)N[C@@H](CCC(=O)O)C(=O)N[C@@H](Cc1c[nH]c2ccccc12)C(=O)N[C@@H](CC(C)C)C(=O)N[C@H](C(=O)N[C@@H](C)C(=O)NCC(=O)NCC(N)=O)C(C)C)C(C)C)C(=O)O [g639] (H-HSEGTFTSDYSKYLDSK([γGlu-Palmitoyl])RAEDFVEWLVAGG-NH2; N-terminus assumed) | 0.244 nM | 82.1 nM | 82.1 nM | – | – | – |
